This note sets out measurements from PMC10773943, “Molecular cloning and functional analysis of 4-coumarate: CoA ligases from Marchantia paleacea and their roles in lignin and flavanone biosynthesis” (PLOS ONE, 2024).

Common to all, as to format: biochemical, Marchantia paleacea
Conditions in all cases: ATP, MgCl2, 200 mM Tris-HCl (assay: 5 mM ATP, 300 μM CoA, 5 mM MgCl2, pH 7.5, 30°C)

For assay [1], the system named is T1, Mp4CL1.
T1 construct: expressed in E. coli BL21(DE3), purified; from transcriptome SRP078650
Nature of the assay: UV absorbance of CoA ester formation at […] nm.

For assay [2], the system named is T1, Mp4CL1. Briefly: UV absorbance of CoA ester formation at […] nm. This is another data set of the same source.
In assay [3] the test system is T1, Mp4CL1. Nature of the assay: HPLC quantification of CoA ester with calibration curve. From the text: HPLC quantification of CoA ester with calibration curve on Mp4CL1
The subject of assay [4] is T1, Mp4CL1. Nature of the assay: UV absorbance of CoA ester formation at […] nm. This is another data set of the same source.

The term Km denotes the concentration of substrate that gives half-maximal velocity.

The structures appear in SMILES notation.

With `O=C(O)/C=C/c1ccc(O)c(O)c1` [caffeic acid], the Km with Mp4CL1 [1] turned out to be 113 ± 24.3 µM.

Regarding `O=C(O)/C=C/c1ccccc1` [cinnamic acid], the Km in the assay on Mp4CL1 [2] came out at 115 ± 16.6 µM. For `O=C(O)CCc1ccc(O)cc1` [dihydro-p-coumaric acid], the Km in the assay with Mp4CL1 [3] is 289 ± 36.5 µM.

As to `COc1cc(/C=C/C(=O)O)ccc1O` [ferulic acid], the Km in the assay with Mp4CL1 [1] came to 414 ± 95.7 µM. Regarding `O=C(O)/C=C/c1ccc(O)cc1` [p-coumaric acid], the Km with Mp4CL1 [4] came to 94 ± 30.9 µM.
